Results from publication PMC5607274, “An iterative compound screening contest method for identifying target protein inhibitors using the tyrosine-protein kinase Yes” (Scientific Reports, 2017).

Biological target: T1, human recombinant Yes [a.a. 2–543 (end)] (Homo sapiens, UniProt P07947)
T1 construct: human recombinant Yes [a.a; 2–543 (end)]; purchased BPS Bioscience 40488
Assay: ADP-Glo kinase assay, inhibition rates of Yes phosphorylation activity (first and second screening)
Assay type: biochemical
Details: 10 μmol L−1 compound; for First screening IR (inhibition rate): mean of n = 4 wells
Summary of the method: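 ADP-Glo luminescence measured inhibition of human recombinant Yes (a.a. 2–543) phosphorylation activity. In the first screen, each compound ran in 4 wells and inhibition rates were averaged. The second screen retested hits as compounds dissolved from fresh powder.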

T1 sequence (P07947 2-543): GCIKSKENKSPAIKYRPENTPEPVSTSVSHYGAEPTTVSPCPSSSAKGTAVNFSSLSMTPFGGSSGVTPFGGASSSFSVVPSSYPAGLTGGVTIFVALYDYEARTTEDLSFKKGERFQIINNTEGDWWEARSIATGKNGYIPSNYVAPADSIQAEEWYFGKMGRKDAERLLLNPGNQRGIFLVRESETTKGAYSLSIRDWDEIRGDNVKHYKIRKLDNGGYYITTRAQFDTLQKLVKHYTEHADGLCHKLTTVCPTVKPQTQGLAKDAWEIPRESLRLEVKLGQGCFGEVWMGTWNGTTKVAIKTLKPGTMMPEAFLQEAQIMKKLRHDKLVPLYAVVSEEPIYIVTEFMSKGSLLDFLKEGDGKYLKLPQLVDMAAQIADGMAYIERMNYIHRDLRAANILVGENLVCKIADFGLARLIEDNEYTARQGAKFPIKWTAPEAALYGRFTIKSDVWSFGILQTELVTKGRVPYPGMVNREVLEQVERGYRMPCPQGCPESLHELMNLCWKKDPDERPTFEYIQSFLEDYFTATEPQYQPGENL

| First screening IR (inhibition rate) [%] | Second screening IR (inhibition rate) (second screening, dissolved from fresh powder, n = 4) [%] | SMILES |
| --- | --- | --- |
| -1 |  | Cn1c(SCC(=O)N2c3ccccc3OCC2c2ccccc2)nnc1-c1ccncc1 (stereo not drawn) [Compound Z65769442] |
| -4 |  | O=C(Nc1ccc(N2CCOCC2)cc1N1CCOCC1)c1ccc(N2C(=O)CCC2=O)cc1 [Compound Z28028679] |
| 2 |  | O=C(CCCNC(=O)c1ccc(-c2ccccc2F)o1)Nc1ccc(Cl)cc1 [Compound Z730571712] |
| 4 |  | O=C(Nc1ccc2[nH]c(=O)[nH]c2c1)c1cc2c(s1)-c1ccccc1CC2 [Compound Z26792816] |
| -1 |  | CCOC(=O)c1sc(-c2cccc([N+](=O)[O-])c2)cc1NC(=O)CCc1ccccc1 [Compound Z29956667] |
| 2 |  | C/C(=C/c1ccc2ncccc2c1)c1cnccn1 [Compound Z1728623559] |
| 44 | -10 | O=C(Nc1cc(C(F)(F)F)ccc1N1CCCCC1)c1ccc(Cl)c(S(=O)(=O)Nc2ccccc2C(=O)Nc2cc(C(F)(F)F)ccc2N2CCCCC2)c1 [Compound Z56805970] |
| -2 |  | CN(CC(=O)Nc1ccccc1Cl)C(=O)COC(=O)c1c2c(nc3ccccc13)CCC(C(C)(C)C)C2 (stereo not drawn) [Compound Z19182299] |
| -4 |  | Cl.Fc1ccc(-c2cc(-c3ccccc3)c3cc(Cl)ccc3n2)cc1 [Compound Z48950786] |
| 13 |  | Cc1nc(/C=C2/C(=O)Nc3ccc(Cl)cc32)cs1 [Compound Z44304809] |
| 17 |  | Cc1nccn1-c1cncc(NCCOCCS(C)(=O)=O)n1 [Compound Z1513517715] |
| -1 |  | COc1ccccc1/C=C1\CC(C)Cc2c1nc1ccccc1c2C(=O)O (stereo not drawn) [Compound Z46107852] |
| 4 |  | NC(=O)NCc1ccc(C(=O)N2CCN(c3ncc(C(F)(F)F)cc3Cl)CC2)cc1 [Compound Z30640594] |
| 6 |  | CC(=O)Nc1ccc(Nc2cc(C(C)(C)C)nc3c(-c4ccccc4Cl)c(C)nn23)cc1 [Compound Z1172235206] |
| -21 |  | CC1CN(C(=O)Nc2ccccn2)CCN1C(=O)Nc1ccccn1 (stereo not drawn) [Compound Z827524892] |
| 46 |  | O=C(CSc1nc2ccccc2c(=O)n1CCCN1CCOCC1)Nc1ccc2ccccc2c1 [Compound Z19837911] |
| 35 |  | CC1CN(c2nccnc2C#N)CCN1C(=O)c1cccc(OCc2ccc(F)cc2)c1 (stereo not drawn) [Compound Z1401935735] |
| -3 |  | O=C(Nc1cc(-c2cccc([N+](=O)[O-])c2)sc1C(=O)O)c1cc2c(s1)CCC2 [Compound Z204341220] |
| -5 |  | COc1ccccc1NC(=O)C1=C(C)Nc2nc(SCc3ccccc3)nn2C1c1ccncc1 (stereo not drawn) [Compound Z1227522997] |
| -2 |  | Cc1cc(C(NCC(=O)Nc2cccc(C(=O)N(C)C)c2)C(C)C)c(C)s1 (stereo not drawn) [Compound Z1592563027] |
| -36 |  | O=C(c1ccc(Nc2nccc(C(F)(F)F)n2)cc1)N1CCCC1 [Compound Z319025642] |
| 8 |  | CCN(CC)S(=O)(=O)c1ccc(N2CCC(NC(C)C)CC2)c([N+](=O)[O-])c1 [Compound Z1082766798] |
| -6 |  | CN(CC(=O)NC(=O)Nc1ccccc1F)C1CCCc2ccccc21 (stereo not drawn) [Compound Z52744280] |

| First screening IR (inhibition rate) [%] | Second screening IR (inhibition rate) (second screening, dissolved from fresh powder, n = 4) [%] | SMILES |
| --- | --- | --- |
| 16 |  | O=c1[nH]c2ccccc2c2nc(-c3ccc(CSc4nc5ccccc5[nH]4)cc3)nn12 [Compound Z208192218] |
| 11 |  | COC(=O)c1c(Nc2nc3ccccc3nc2N2CCN(C/C=C/c3ccccc3)CC2)sc(C)c1C [Compound Z56867786] |
| 47 |  | Cn1c(=O)[nH]c(=O)c2c1nc(N1CCN(Cc3ccccc3)CC1)n2CCSc1nnnn1-c1ccccc1 [Compound Z239092730] |
| 6 |  | Cc1cc(C(=O)COc2ncnc3ccccc23)c(C)n1CC(F)(F)F [Compound Z18537891] |
| 14 |  | O=C(CCn1[nH]c(=O)ccc1=O)Nc1ccc(-n2cnnn2)cc1 [Compound Z51737757] |
| 21 |  | Cc1cc(C)c(C)c(S(=O)(=O)Nc2ccccc2C(=O)N2CCN(c3cccc(C(F)(F)F)c3)CC2)c1C [Compound Z56576419] |
| 2 |  | CN(C)c1ccc(Nc2nccc(C(F)(F)F)n2)cn1 [Compound Z319012738] |
| 5 |  | CC1CCCC(C)C12NC(=O)N(CN(C)CC(=O)Nc1ccccc1Cl)C2=O (stereo not drawn) [Compound Z286135428] |
| 21 |  | O=C(c1cn(Cc2ccccc2)nc1-c1cccnc1)N1CCN(c2ccccn2)CC1 [Compound Z26735071] |
| -2 |  | COC1CCC(N(C)c2ncc(C(=O)N3CCOCC3)cc2Cl)CC1 (stereo not drawn) [Compound Z1212734184] |
| -8 |  | CC(C)n1ncc2c(C(=O)O)cc(-c3ccccc3F)nc21 [Compound Z56643534] |
| 15 |  | Cc1c(Nc2ccc(/C=C3/C(=O)Nc4ccc(Cl)cc43)cc2)c(=O)n(-c2ccccc2)n1C [Compound Z46051719] |
| 0 |  | CCc1ccc(/C=C2/CN(C)Cc3c2nc2ccccc2c3C(=O)O)cc1 [Compound Z46114754] |
| -2 |  | CN(C1CCS(=O)(=O)C1)S(=O)(=O)c1ccc(Cl)c(Cl)c1 (stereo not drawn) [Compound Z71311982] |
| 18 |  | Cn1ncc2c(N3CCOC(Cn4cccn4)C3)ncnc21 (stereo not drawn) [Compound Z1139215576] |
| 27 |  | CN(C)c1nccc(N2CCN(Cc3ccc(Cl)o3)CC2)n1 [Compound Z1569249080] |
| 0 |  | N#Cc1cnc(N2CCN(S(=O)(=O)c3cc(Cl)ccc3Cl)CC2)c(Cl)c1 [Compound Z1039059796] |
| 3 |  | Cc1cccc(NC2CCN(C(=O)c3c[nH]c4cccc(F)c34)CC2)n1 [Compound Z1538193381] |
| 36 |  | Cc1ccc(C)c(Cn2c(N3CCN(C/C=C/c4ccccc4)CC3)nc3c2c(=O)[nH]c(=O)n3C)c1 [Compound Z237733700] |
| 33 |  | CCN(C(=O)CN(C)CC(=O)Nc1ccc(Cl)cc1)c1cccc2ccccc12 [Compound Z46378572] |
| -11 |  | Fc1ccc(-c2n[nH]c(CNc3cncc(Cl)n3)n2)cc1 [Compound Z1309541011] |
| 7 |  | COc1ccc(/C=C2/CCCc3c2nc2ccccc2c3C(=O)OCC(=O)Nc2sc3c(c2C(=O)Nc2ccc(Cl)cc2)CCCC3)cc1 [Compound Z19394488] |
| -1 |  | c1ccc(-c2nc(Sc3n[nH]c(-c4ccncc4)n3)nc3ccccc23)cc1 [Compound Z271700602] |

| First screening IR (inhibition rate) [%] | Second screening IR (inhibition rate) (second screening, dissolved from fresh powder, n = 4) [%] | SMILES |
| --- | --- | --- |
| -21 |  | CC(O)(CNc1ccnc2c(F)cc(Br)cc12)CN1CCOCC1 (stereo not drawn) [Compound Z1601616896] |
| -2 |  | Cc1ccc(C(=O)OCc2nc(N)nc(Nc3ccccc3)n2)s1 [Compound Z89671452] |
| 2 |  | CCOC(=O)c1c(C)oc2ncn(Cc3cccc(F)c3F)c(=O)c12 [Compound Z154098858] |
| -9 |  | CCCN(CCC)S(=O)(=O)c1cccc(S(N)(=O)=O)c1 [Compound Z237751694] |
| 3 |  | O=S1(=O)C=CC(Br)C1 (stereo not drawn) [Compound Z56764753] |
| 9 |  | CCCOc1cc(/C=C2/C(=O)Nc3ccc(Cl)cc32)ccc1OC [Compound Z44304730] |
| 4 |  | CN(Cc1cnn(-c2ccccc2)c1)C(=O)c1ccc(Cl)c(S(=O)(=O)N2CCCCCC2)c1 [Compound Z115152726] |
| 2 |  | O=C(NCCCn1ccnc1)/C(=C/c1ccc(-c2cccc(Cl)c2)o1)NC(=O)c1ccccc1 [Compound Z57239426] |
| -17 |  | CS(=O)(=O)Cc1ccc(CNc2ccnc3c(F)ccc(F)c23)cc1 [Compound Z983418922] |
| 2 |  | CC(Nc1ccc(C#N)cn1)c1ccc(OCc2cccnc2)cc1 (stereo not drawn) [Compound Z644822950] |
| 26 |  | O=C(COC(=O)c1ccccc1OCc1ccccc1)Nc1ccc2c(c1)CCC2 [Compound Z18387854] |
| 0 |  | O=C(NCCCOc1ccccc1F)c1ccc2nc[nH]c2c1 [Compound Z147064724] |
| -4 |  | Clc1ccccc1Cn1ncc2c(N3CCOCC3)ncnc21 [Compound Z1172235408] |
| 5 |  | O=C(COc1c(Br)cc(Br)c2cccnc12)N1CCCCC1 [Compound Z19811005] |
| 3 |  | COc1ccccc1NC(=O)c1ccc(NC(=O)COc2ccc(-c3ccccc3)cc2)cc1 [Compound Z19829052] |
| 11 |  | CCC(C)CS(=O)(=O)N1CCS(=O)(=O)C(C)(C)C1 (stereo not drawn) [Compound Z1403432995] |
| 2 |  | Cc1oc(-c2ccsc2)nc1CC(=O)Nc1cc(C(N)=O)n(C)c1 [Compound Z1039455578] |
| 2 |  | Cc1ccc(C(=O)CC2(O)C(=O)Nc3ccc(Cl)cc32)cc1 (stereo not drawn) [Compound Z57172226] |
| -9 |  | CN(CCS(=O)(=O)c1cc(Cl)ccc1Cl)Cc1nc2ccccc2c(=O)[nH]1 [Compound Z46302626] |
| 16 |  | O=C(Cn1c(CN2CCOCC2)nc2sc3c(c2c1=O)CCCC3)Nc1ccc(OCc2ccccc2)cc1 [Compound Z86108588] |
| 13 |  | FC(F)(F)c1ccnc(Nc2ccc(NC3CCOCC3)cc2)n1 [Compound Z1021076320] |
| -9 |  | COc1ccc(/C(O)=C2\C(=O)C(=O)N(CCCn3ccnc3)C2c2cccnc2)cc1OC (stereo not drawn) [Compound Z335452550] |
